Source: patent publication US20060069132A1, “Azolecarboxamide herbicides” (priority 2004, published 2006)

Assays:
large crabgrass [1] = experiment: Test A pre-/postemergence herbicide test; format: in vivo, Digitaria sanguinalis
In short: (§1)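 Visual injury scores on a 0–100 scale (100 = complete control) taken about ten days post-treatment in greenhouse against untreated controls; dash means no result. Treatments: preemergence soil spray and postemergence spray to runoff on one- to two-leaf plants 2 to 10 cm tall, surfactant-containing formulation.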

redroot pigweed = experiment: Test A pre-/postemergence herbicide test; format: in vivo, Amaranthus retroflexus
In short: as §1

corn = experiment: Test C pre-/postemergence herbicide test; format: in vivo, Zea mays
In short: (§2)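 Visual ratings on a 0–100 scale (100 = complete control) made versus untreated controls after 12 to 14 greenhouse days. Test chemicals, formulated in surfactant-containing non-phytotoxic solvent, applied preemergence to planted seeds or postemergence to 1- to 4-leaf plants (2 to 18 cm).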

large crabgrass [2] = experiment: Test C pre-/postemergence herbicide test; format: in vivo, Digitaria sanguinalis
In short: as §2

johnsongrass = experiment: Test C pre-/postemergence herbicide test; format: in vivo, Sorghum halepense
In short: as §2

eastern black nightshade = experiment: Test C pre-/postemergence herbicide test; format: in vivo, Solanum ptycanthum; settings: preemergence
In short: as §2

[3] = Postemergence, 500 g ai/ha, 0 to 100 scale, 0 no effect, 100 complete control
[4] = Postemergence, 2000 g ai/ha, 0 to 100 scale, 0 no effect, 100 complete control
[5] = Preemergence, 500 g ai/ha, visual rating, 0 to 100 scale (0 no effect, 100 complete control)
[6] = Preemergence, 2000 g ai/ha, visual rating, 0 to 100 scale (0 no effect, 100 complete control)
[7] = 125 g ai/ha, scale 0 (no effect) to 100 (complete control), visual, 12 to 14 days, preemergence
[8] = 125 g ai/ha, scale 0 (no effect) to 100 (complete control), visual, 12 to 14 days
[9] = Preemergence, 2000 g ai/ha, 0 to 100 scale, 0 no effect, 100 complete control
[10] = 31 g ai/ha, preemergence, scale 0 to 100
[11] = Postemergence, 125 g ai/ha, scale 0 to 100, 0 no effect, 100 complete control
[12] = postemergence, 62 g ai/ha, scale 0 to 100
[13] = 250 g ai/ha, scale 0 to 100 (0 no effect, 100 complete control), visual, 12 to 14 days, preemergence
[14] = Postemergence, 250 g ai/ha, scale 0 to 100, 0 no effect, 100 complete control
[15] = 62 g ai/ha, preemergence, scale 0 to 100
[16] = 250 g ai/ha, scale 0-100, preemergence
[17] = 500 g ai/ha, scale 0 to 100 (0 no effect, 100 complete control), visual, 12 to 14 days, preemergence
[18] = 500 g ai/ha, scale 0 to 100 (0 no effect, 100 complete control), visual, 12 to 14 days

SMILES | Plant response rating, Crabgrass, Large (large crabgrass [1]; [4]) | Crabgrass, Large plant response rating (large crabgrass [1]; [5]) | Plant response rating, Pigweed (redroot pigweed; [4]) | Plant response rating (0 = no effect, 100 = complete control), Corn (corn; 62 g ai/ha, preemergence) | Plant response rating, Corn (corn; [7]) | Plant response rating (0 = no effect, 100 = complete control), Crabgrass, Large (large crabgrass [2]; 62 g ai/ha, preemergence) | Plant response rating, Crabgrass, Large (large crabgrass [2]; [7]) | Plant response rating (0 = no effect, 100 = complete control), Johnsongrass (johnsongrass; 62 g ai/ha, preemergence) | Plant response rating, Johnsongrass (johnsongrass; [7]) | Plant response rating, Nightshade (eastern black nightshade; [8]) | Plant response rating, Corn (corn; [15]) | Plant response rating (0 = no effect, 100 = complete control), Corn (corn; 125 g ai/ha, preemergence) | Plant response rating, Corn (corn; [16]) | Plant response rating, Corn (corn; [17]) | Plant response rating, Crabgrass, Large (large crabgrass [2]; [15]) | Plant response rating (0 = no effect, 100 = complete control), Crabgrass, Large (large crabgrass [2]; 125 g ai/ha, preemergence) | Plant response rating, Crabgrass, Large (large crabgrass [2]; [16]) | Plant response rating, Crabgrass, Large (large crabgrass [2]; [17]) | Plant response rating, Johnsongrass (johnsongrass; [15]) | Plant response rating (0 = no effect, 100 = complete control), Johnsongrass (johnsongrass; 125 g ai/ha, preemergence) | also measured
CC(=O)c1cccc(NC(=O)c2cc(C(C)(C)C)nn2CCF)c1 [Compound 128] | 70 | 90 | 80 | 20 | 20 | 100 | 100 | 90 | 90 | 90 |  |  |  |  |  |  |  |  |  |  | Crabgrass, Large plant response rating (large crabgrass [1]; [3]): 60; Crabgrass, Large plant response rating (large crabgrass [1]; [6]): 100; Pigweed plant response rating (redroot pigweed; [3]): 50; Pigweed plant response rating (redroot pigweed; [6]): 95; Pigweed plant response rating (redroot pigweed; preemergence, 500 g ai/ha, visual injury, 0 to 100 scale (0 no effect, 100 complete control)): 60; Plant response rating (0 = no effect, 100 = complete control), Nightshade (eastern black nightshade; 62 g ai/ha): 90
CCNC(=O)c1cccc(NC(=O)c2cc(C(C)(C)C)nn2CCF)c1 [Compound 35] | 60 | 95 | 95 | 0 | 0 | 10 | 50 | 50 | 70 | 90 |  |  |  |  |  |  |  |  |  |  | Plant response rating, Crabgrass, Large (large crabgrass [1]; [3]): 55; Crabgrass, Large plant response rating (large crabgrass [1]; [9]): 100; Plant response rating, Pigweed (redroot pigweed; [3]): 85; Pigweed plant response rating (redroot pigweed; [5]): 100; Pigweed plant response rating (redroot pigweed; [9]): 100; Plant response rating, Corn (corn; [10]): 0; Plant response rating, Corn (corn; [11]): 40; Plant response rating, Corn (corn; [12]): 30; Plant response rating, Crabgrass, Large (large crabgrass [2]; [10]): 0; Plant response rating, Crabgrass, Large (large crabgrass [2]; [11]): 40; Plant response rating, Crabgrass, Large (large crabgrass [2]; [12]): 40; Plant response rating, Johnsongrass (johnsongrass; [10]): 10; Plant response rating, Johnsongrass (johnsongrass; [11]): 70; Plant response rating, Johnsongrass (johnsongrass; [12]): 70; Plant response rating, Nightshade (eastern black nightshade; 31 g ai/ha, scale 0 to 100): 70
CCn1nc(C(C)(C)C)cc1C(=O)Nc1cccc(C(=O)NC2CC2)c1 [Compound 44] | 80 | 45 | 100 | 0 | 0 | 0 | 20 | 30 | 30 | 90 |  |  |  |  |  |  |  |  |  |  | Plant response rating, Crabgrass, Large (large crabgrass [1]; [3]): 55; Crabgrass, Large plant response rating (large crabgrass [1]; [9]): 90; Plant response rating, Pigweed (redroot pigweed; [3]): 100; Pigweed plant response rating (redroot pigweed; [5]): 100; Pigweed plant response rating (redroot pigweed; [9]): 100; Plant response rating, Corn (corn; [13]): 0; Plant response rating, Corn (corn; [11]): 70; Plant response rating, Corn (corn; [14]): 80; Plant response rating, Corn (corn; [12]): 70; Plant response rating, Crabgrass, Large (large crabgrass [2]; [13]): 20; Plant response rating, Crabgrass, Large (large crabgrass [2]; [11]): 90; Plant response rating, Crabgrass, Large (large crabgrass [2]; [14]): 90; Plant response rating, Crabgrass, Large (large crabgrass [2]; [12]): 60; Plant response rating, Johnsongrass (johnsongrass; [13]): 50; Plant response rating, Johnsongrass (johnsongrass; [11]): 30; Plant response rating, Johnsongrass (johnsongrass; [14]): 40; Plant response rating, Johnsongrass (johnsongrass; [12]): 30; Plant response rating (0 = no effect, 100 = complete control), Nightshade (eastern black nightshade; 62 g ai/ha): 80; Plant response rating, Nightshade (eastern black nightshade; 250 g ai/ha, scale 0 to 100 (0 no effect, 100 complete control), visual, 12 to 14 days): 100
C=CCNC(=O)c1cccc(NC(=O)c2nn(C(C)C)nc2CC)c1 [Compound 382] |  |  |  |  |  |  |  |  |  |  | 0 | 50 | 55 | 60 | 95 | 100 | 100 | 100 | 70 | 95 | Plant response rating, Johnsongrass (johnsongrass; [16]): 100; Plant response rating, Johnsongrass (johnsongrass; [17]): 100; Plant response rating, Nightshade (eastern black nightshade; 62 g ai/ha, scale 0 to 100): 95; Plant response rating, Nightshade (eastern black nightshade; 250 g ai/ha, scale 0-100): 95; Plant response rating, Nightshade (eastern black nightshade; [18]): 100
CCc1nn(C(C)C)nc1C(=O)Nc1cccc(C(=O)N(C)CC)c1 [Compound 386] |  |  |  |  |  |  |  |  |  |  | 10 | 60 | 80 | 85 | 98 | 100 | 100 | 100 | 85 | 100 | Plant response rating, Johnsongrass (johnsongrass; [16]): 100; Plant response rating, Johnsongrass (johnsongrass; [17]): 100; Plant response rating, Nightshade (eastern black nightshade; 62 g ai/ha, scale 0 to 100): 90; Plant response rating (0 = no effect, 100 = complete control), Nightshade (eastern black nightshade; 125 g ai/ha): 95; Plant response rating, Nightshade (eastern black nightshade; 250 g ai/ha, scale 0-100): 95; Plant response rating, Nightshade (eastern black nightshade; [18]): 100
Cc1nn(C(C)(C)C)nc1C(=O)Nc1cccc(C(=S)N(C)C)c1 [Compound 419] |  |  |  |  |  |  |  |  |  |  | 0 | 0 | 0 | 40 | 100 | 100 | 100 | 100 | 100 | 100 | Plant response rating, Johnsongrass (johnsongrass; [16]): 100; Plant response rating, Johnsongrass (johnsongrass; [17]): 100; Plant response rating, Nightshade (eastern black nightshade; 62 g ai/ha, scale 0 to 100): 85; Plant response rating (0 = no effect, 100 = complete control), Nightshade (eastern black nightshade; 125 g ai/ha): 95; Plant response rating, Nightshade (eastern black nightshade; [18]): 100
